In patent US20200239530A1, “COMPOUNDS AND METHODS OF MODULATING PROTEIN DEGRADATION” (Vividion Therapeutics, Inc., priority 2017, published 2020):

Tests used:
Assay in all cases: Cysteine liganding, probe competition
Assay type in all cases: binding
[1] = target: T1, HNRPLL Heterogeneous nuclear ribonucleoprotein L-like (Homo sapiens, UniProt Q8WVV9); conditions: HNRPLL Res# 464, uniprot Q8WVV9
T1 construct: Cells were resuspended in cold PBS on ice and sonicated with a probe sonicator to achieve lysis; endogenous in cells
In short: (§1)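 Steps: sonicate cells in cold PBS; treat 5 mg/ml lysate with compound (25° C, 1 hr); add desthiobiotin iodoacetamide probe from a 10 mM stock (25° C, 1 hr); precipitate, reduce, alkylate, digest with trypsin; capture labelled peptides on streptavidin for analysis.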

[2] = target: T2, B-cell lymphoma 6 protein (BCL6) (Homo sapiens, UniProt P41182)
T2 construct: Cells were resuspended in cold PBS on ice and sonicated with a probe sonicator to achieve lysis; endogenous in cells
In short: as §1

[3] = target: T3, ALDH1L2 Mitochondrial 10-formyltetrahydrofolate dehydrogen (Homo sapiens, UniProt Q3SY69)
T3 construct: 200 μL of lysate containing 5 mg/ml proteome was treated with 2 μL of 100× compound stock; endogenous in cells
T3 sequence (Q3SY69 1-923): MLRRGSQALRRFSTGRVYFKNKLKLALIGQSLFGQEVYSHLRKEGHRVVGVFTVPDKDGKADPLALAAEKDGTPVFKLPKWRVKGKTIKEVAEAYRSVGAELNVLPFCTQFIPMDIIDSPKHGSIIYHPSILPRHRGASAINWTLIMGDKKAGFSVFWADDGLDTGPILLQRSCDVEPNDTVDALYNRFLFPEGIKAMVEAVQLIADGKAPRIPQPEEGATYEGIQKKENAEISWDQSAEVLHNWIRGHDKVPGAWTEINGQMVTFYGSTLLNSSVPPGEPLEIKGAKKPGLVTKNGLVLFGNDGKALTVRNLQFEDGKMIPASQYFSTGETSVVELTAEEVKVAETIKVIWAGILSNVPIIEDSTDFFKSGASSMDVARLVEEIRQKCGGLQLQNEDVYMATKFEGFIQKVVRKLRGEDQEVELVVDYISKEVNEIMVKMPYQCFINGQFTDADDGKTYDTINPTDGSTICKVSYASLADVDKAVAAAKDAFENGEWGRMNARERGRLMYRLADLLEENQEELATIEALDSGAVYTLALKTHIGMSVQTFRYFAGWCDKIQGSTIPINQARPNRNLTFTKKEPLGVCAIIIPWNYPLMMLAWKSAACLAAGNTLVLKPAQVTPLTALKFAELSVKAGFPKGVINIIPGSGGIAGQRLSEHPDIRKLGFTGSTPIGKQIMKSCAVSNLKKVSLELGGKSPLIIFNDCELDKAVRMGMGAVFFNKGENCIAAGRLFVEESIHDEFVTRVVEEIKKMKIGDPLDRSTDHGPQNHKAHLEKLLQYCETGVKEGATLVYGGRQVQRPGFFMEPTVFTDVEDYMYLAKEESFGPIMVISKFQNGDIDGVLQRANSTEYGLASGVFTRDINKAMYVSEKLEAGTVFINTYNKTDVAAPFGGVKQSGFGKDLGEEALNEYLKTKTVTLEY
In short: as §1

T1 sequence (Q8WVV9 whole entry): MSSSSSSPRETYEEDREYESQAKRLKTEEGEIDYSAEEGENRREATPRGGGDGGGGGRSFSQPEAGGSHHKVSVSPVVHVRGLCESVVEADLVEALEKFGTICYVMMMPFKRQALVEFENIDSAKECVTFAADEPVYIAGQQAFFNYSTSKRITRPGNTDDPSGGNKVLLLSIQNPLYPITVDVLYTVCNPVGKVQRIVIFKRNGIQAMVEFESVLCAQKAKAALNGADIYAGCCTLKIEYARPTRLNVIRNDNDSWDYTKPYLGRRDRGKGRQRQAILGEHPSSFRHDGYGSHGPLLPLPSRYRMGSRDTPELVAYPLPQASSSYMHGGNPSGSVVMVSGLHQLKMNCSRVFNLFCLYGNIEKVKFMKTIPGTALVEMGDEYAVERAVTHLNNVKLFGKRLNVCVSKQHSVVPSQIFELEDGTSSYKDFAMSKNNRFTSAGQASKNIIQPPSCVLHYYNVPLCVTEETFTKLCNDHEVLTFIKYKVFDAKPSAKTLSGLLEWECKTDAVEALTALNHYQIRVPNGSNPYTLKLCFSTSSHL

## COc1ccc2c(c1)CCCN2C(=O)CCl [KB02]
[1]
  Liganded: YES

## C=CC(=O)N(c1ccccc1)c1ccc(Br)cc1 [KB05]
[2]; 100 uM
  KB05_100 uM_percent_inhibition: 7%
[2]; read-out: KB05_100 uM_percent_inhibition
  inhibition at 100 µM: 9%

## O=C(CCl)Nc1cc(C(F)(F)F)cc(C(F)(F)F)c1 [KBO3]
[3]; ALDH1L2 Res# 707, uniprot Q3SY69
  Liganded: YES
[3]; uniprot Q3SY69
  100 Max: 52.7
  100 ave: 52.7
  500 ave: 77.55
[3]; uniprot Q3SY69, in % (unit assumed)
  500 Max: 77.55
